B1: BDNF: classical neurotrophic factor, used as an endogenous activator of the signalling pathway under investigation (protein, UniProt P23560 19-247, looked up)
Neurotrophic factor BDNF …: APMKEANIRGQGGLAYPGVRTHGTLESVNGPKAGSRGLTSLADTFEHVIEELLDEDQKVRPNEENNKDADLYTSRVMLSSQVPLEPPLLFLLEEYKNYLDAANMSMRVRRHSDPARRGELSVCDSISEWVTAADKKTAVDMSGGTVTVLEKVPVSKGQLKQYFYETKCNPMGYTKEGCRGIDKRHWNSQCRTTQSYVRALTMDSKKRIGWRFIRIDTSCVCTLTIKRGR

Key:
[1] = tested on: dopaminergic TH-positive neurons injured with MPP+; assay: MPP+ in vitro Parkinson's disease model, TH/αSyn plate at 48 hours (α-syn, DA neurons, neurites); assay type: cell-based, rat; details: MPP+ 4 μM
Description: (§1) The ventral portion of the mesencephalic flexure, a region of the developing brain rich in dopaminergic neurons, was used for the cell preparations.
(§2) (solution at a final concentration of 0.05% trypsin and 0.02% EDTA). […] Cells were then mechanically dissociated by 3 passages through a 10 ml pipette. Cells were then centrifuged at 180×g for 10 min at +4° C. on a layer of BSA (3.5%) in L15 medium. […] Viable cells were counted in a Neubauer cytometer using the trypan blue exclusion test. […] Half of the medium was changed every 2 days with fresh medium.
The cells were washed twice in PBS, and then permeabilized.

[2] = tested on: dopaminergic TH-positive neurons injured with MPP+; assay: MPP+ in vitro Parkinson's disease model, mitochondrial ROS in TH neurons at 4 hours (TH/ROS plate); assay type: cell-based, rat; details: CF3CN 10 nm to 1 μm, 1 h pre-incubation, MPP+ 4 μM, FIG. 1
Description: as §1, §2

[3] = tested on: primary SOD1 transgenic spinal cord motor neurons injured with glutamate; assay: In vitro ALS model: glutamate-injured primary spinal motor neurons (MAP2/TDP43, 24 hours); assay type: cell-based, rat; details: for number of motor neurons: FIG. 5
Description: Cells were mechanically dissociated by three forced passages through the tip of a 10-ml pipette. Cells were then centrifuged at 515×g for 10 min at 4° C. […] Viable cells were counted in a Neubauer cytometer, using the trypan blue exclusion test. […] The medium was changed every 2 days.

[4] = tested on: 5XFAD mice; details: repeated administration, WO2020/033604; cited from earlier work

Row | Molecule | level of neurites ([1]; CF3CN 1 nm to 1 μm, FIG. 4) | number of DA neurons ([1]; CF3CN 10 and 100 nm, FIG. 3) | level of α-syn ([1]; all dose levels (1 nM to 5 μM) except 10 μm, FIG. 2) | reduction of mitochondrial stress (ROS in TH(+) neurons) [2] | neurite network ([3]; CF3CN 10 and 100 nm, glutamate 5 μM 20 min, 24 hours, compared to the control, FIG. 6) | level of extranuclear TDP-43 versus the positive controls ([3]; CF3CN 10 nm and 100 nm, compared with Riluzole 5 μM and BDNF 50 ng/ml) | number of motor neurons ([3]; CF3CN 10 nm, 100 nm and 1 μm, glutamate 5 μM 20 min, 24 hours, compared to the control) | number of extranuclear TDP-43 ([3]; CF3CN all concentrations except the highest and the lowest (10 nM to 5 μM), glutamate 5 μM 20 min, 24 hours, FIG. 7) | synaptic loss [4] | number of motor neurons ([3]; positive controls: Riluzole 5 μM, BDNF 50 ng/ml, glutamate 5 μM 20 min, 24 hours, compared to the control)
1 | N#Cc1ccc(-c2cc(=O)c3ccc4[nH]c(C(F)(F)F)nc4c3o2)cc1 [CF3CN, 4-(6-oxo-2-(trifluoromethyl)-3,6-dihydrochromeno[7,8-d]imidazol-8-yl)benzonitrile] | increase the level of neurites | increase the number of DA neurons | statistically significantly reduce the level of α-syn | statistically significantly reduced ROS | increased the neurite network in a statistically significant manner | greater decrease in the level of extranuclear TDP-43 than the positive controls | statistically significant increase in the number of motor neurons | decreased the number of extranuclear TDP-43 in a statistically significant manner | prevent synaptic loss | 
2 | B1 |  |  |  |  |  |  |  |  |  | statistically significant increase in the number of motor neurons
